# Reference: publication PMC11313435, “Identification of Antioxidant Methyl Derivatives of Ortho-Carbonyl Hydroquinones That Reduce Caco-2 Cell Energetic Metabolism and Alpha-Glucosidase Activity” (International Journal of Molecular Sciences, 2024)
# Entries after “also recorded” stand apart in the source; their conditions may differ.
# Tests used:
# [1] = tested on: Caco-2 cells; test: MTT assay, cell proliferation; type: cell-based, human; details: Caco-2, 24 h treatment, 1-100 µM (Figure 3A)
# Experimental: We evaluate the effect of ortho-carbonyl hydroquinones 1–10 on the intestinal Caco-2 cell line at 24 h of treatment.
# Caco-2 cells were grown in Dulbecco’s modified Eagle’s Medium/Nutrient Mixture F-12 (D-MEM/F-12), supplemented with 5% fetal bovine serum (FBS), penicillin (100 IU/mL), streptomycin (100 μg/mL), and nonessential amino acid solution 1% (GIBCO, Thermo Fisher Scientific, Grand Island). The culture media contained no exogenous pyruvate supplementation, and the cells were maintained in a humidified atmosphere at 37 °C and 5% CO2.
# The cell proliferation was determined using the MTT assay. The cells were incubated in 96-well plates at 7000 cells per well and incubated for 24 h. The cells were treated for 24 h with compounds (1, 5, 10, 30, 50, and 100 μM). After treatment, the culture medium was removed, and the cells were incubated with MTT for 1 h at 37 °C. Finally, 100 μL of DMSO was added and measured by spectrophotometry at 570 nm, as previously described.
# [2] = tested on: Caco-2 cells; test: Menadione-induced cytosolic (DHE) and mitochondrial (MitoSOX) ROS by flow cytometry; type: cell-based, human; details: Caco-2, 100 and 200 µM for 24 h, then 25 µM menadione 1 h; for Effect on menadione-induced mitochondrial ROS production: MitoSOX Red
# Experimental: Using menadione as an ROS inducer, the preventive effect of compounds 5 and 10 on mitochondrial and cytosolic ROS production was evaluated. No changes in the mitochondrial ROS production were observed (Figure 4I).
# The mtROS and ROS levels were measured using MitoSOX® Red Mitochondrial Superoxide (Invitrogen, Carlsbad, CA, USA) and Invitrogen™ Dihydroethidium (Hydroethidine, DHE) probes, respectively. The Caco-2 cells were incubated in 12-well plates at 50,000 cells for 24 h. The cells were treated with compounds 5 and 10 at 100 μM and 200 μM for 24 h. Next, the cells were incubated with 25 μM menadione 25 μM for 1 h, and then the cells were washed with PBS and incubated with MitoSOX Red® (5 µM) or DHE (5 μM) for 30 min. Then, they were recollected, and washed, and the fluorescence was detected by flow cytometry according to Urra et al., 2018 [31].
# [3] = ORAC assay (oxygen radical absorbance capacity, ORAC-FL); details: radical scavenging against peroxyl radicals; mean ± SD of three experiments
# Experimental: The radical-scavenging activities of the hydroquinone series against peroxyl radicals were assessed (ORAC assays). […] Similarly, for the series with the gem-diethyl group on ring B (compounds 6–10), compound 6 presents the highest antioxidant capacity (7.0 + 0.3 mol TE/mol compound). […] The replacement of the gem-dimethyl with the gem-diethyl group also decreases the antioxidant capacity.
# The antioxidant activity was determined by ORAC (oxygen radical absorbance capacity) assays. Briefly, the antioxidant capacity for ORAC-FL was estimated by measuring the changes in fluorescence after 120 min of reaction with the radical. Assays were performed using a 96-well microplate in a Synergy H1 hybrid multi-mode microplate reader (Biotek, Winooski, VT, USA), and the results were expressed as µmol Trolox 100 g^−1 DW. Three replicates were accomplished for each analysis.
# [4] = tested on: Caco-2 cells; test: Extracellular acidification rate and oxygen consumption rate in real time (Seahorse XFe96); type: cell-based, human; details: Caco-2, 100 µM; for Effect on proton leak-driven OCR: 24 h (Figure 4A-D); for Effect on max OCR: 24 h (Figures 3C, 4A-D); for Effect on basal mitochondrial OCR / Effect on glycolysis (ECAR) / Effect on glycolysis, cluster in dendrogram: 24 h; for Effect on basal mitochondrial OCR: compared to control (Figures 3B, 4A-D); for Effect on glycolysis (ECAR): compared to control (Figures 3B, 4E-H); for Effect on glycolysis, cluster in dendrogram: clusters of Figure 3C
# Experimental: We previously described how ortho-carbonyl hydroquinone scaffolds inhibit oxidative phosphorylation in breast cancer cells. Since the reduction in glucose utilization and metabolism in intestinal cells is a promising target for T2DM treatment, the effect of these compounds on mitochondrial respiration and glycolysis in Caco-2 cells was determined. […] The effect of ortho-carbonyl hydroquinone series (100 µM) on five parameters of mitochondrial respiration (basal OCR, max OCR, spare capacity, ATP-linked OCR, and proton leak-driven OCR), and two of glycolysis (glycolytic capacity and glycolysis), is represented in a dendrogram (Figure 3C). […] OCR: compounds 1, 6, 7, and 9. […] No correlations between OCR and ECAR parameters, α-glucosidase activity inhibition, or ORAC were observed (Supplementary Figure S1).
# In contrast, compound 10 increases the proton leak-OCR and decreases max OCR (Figure 4A–D).
# To analyze the extracellular acidification rate (ECAR), Caco-2 cells (10,000 cells/well) were seeded on XFe96 V3-PS multi-well plates and kept for 24 h at 37 °C in 5% CO2 with a DMEM culture medium supplemented with FBS. After 24 h, the cells were stimulated by compounds at 100 μM for 24 h. Then, the culture medium was replaced with assay media (unbuffered DMEM without red phenol, with 4 mM glutamine and 10 mM glucose, pH = 7.4) 1 h before the assay. Glycolysis was evaluated by the sequential injection of 10 mM glucose, 1 µM oligomycin, and 100 mM 2-deoxy-D-glucose (2-DG), and ECAR was analyzed using specific excitation and emission wavelengths of protons (470/530 nm). To study the mitochondrial function, the sequential injection of 1 μM oligomycin, 250 nM FCCP, 1 μM rotenone, and 1 μM antimycin A was added. The oxygen consumption rate (OCR) measurements were made with the specific excitation and emission wavelengths of the fluorescent probes for oxygen (532/650 nm) using a Seahorse XFe96 Analyzer (Seahorse Agilent, USA), and OCR and ECAR data were normalized by protein content/well, which was determined using a BCA kit. Each experiment was performed at least in triplicate. The OCR/ECAR data analysis and dendrograms were performed using XLSTAT software (version 2023.2.1414, Lumivero, New York, NY, USA).
# [5] = biological target: α-glucosidase; test: α-glucosidase inhibitory activity (p-nitrophenyl α-D-glucopyranoside substrate); type: biochemical; details: for IC50: pH 6.9, 37 °C, 15 min, mean ± SD of three experiments, read-out: Inhibition of α-Glucosidase Activity IC50; for pIC50 (α-glucosidase): pIC50 = −log[IC50], Figure 2A
# Experimental: The inhibition of α-glucosidase was determined following a previous method [62] using p-nitrophenyl α-D-glucopyranoside as a substrate. The reaction mixture contained 160 µL of 0.1 M sodium phosphate buffer (pH = 6.9), 5 µL of enzyme (5.46 U/mL), and polyphenolic extract (0.17–1.36 µg/mL). After the pre-incubation of the reaction mixture on ice for 5 min, the enzyme reaction was started by adding 5 µL of 25 mM p-nitrophenyl α-D-glucopyranoside into this mixture. The reaction was incubated for 15 min at 37 °C. Then, 80 µL of 0.2 M sodium carbonate was added. The absorbance was measured at 405 nm in a microplate reader (Biotek ELx808, Agilent, Santa Clara, CA, USA). Enzyme inhibition was calculated using the following equation: % inhibition = (A0 − As)/A0 × 100, where A0 is the absorbance of the control (blank, without extract) and As is the absorbance in presence of the extract. IC50 values denote the µg GAE/mL required to inhibit the enzyme by 50%.
Compound,melting point [°C],IC50 [5] [µM],pIC50 (α-glucosidase) [5],Effect on MTT reduction [1],Effect on menadione-dependent cytosolic ROS production ([2]; DHE),Effect on menadione-induced mitochondrial ROS production [2],ORAC [3] [mol TE/mol Compound],Effect on proton leak-driven OCR [4],Effect on max OCR [4],Effect on basal mitochondrial OCR [4],Effect on glycolysis (ECAR) [4],"Effect on glycolysis, cluster in dendrogram [4]",Effect on max OCR ([4]; listed as compound 10)
"CCC1(CC)C=CC(=O)c2c(O)c(C)c(C)c(O)c21 [Compound 9, 4,4-Diethyl-5,8-dihydroxy-6,7-dimethylnaphthalen-1(4H)-one]",174.9 to 179.8,> 500,3.29,,,,0.83 ± 0.03,,strong inhibitory effect on max. OCR,,reduces the glycolysis,glycolysis enhancers,
"CCC1(CC)C=CC(=O)c2c(O)ccc(O)c21 [Compound 6, 4,4-Diethyl-5,8-dihydroxynaphthalen-1(4H)-one]",,195,3.71,decreased the MTT reduction,,,7.0 ± 0.3,,strong inhibitory effect on max. OCR,reduces the basal mitoOCR,increases ECAR,glycolysis enhancers,
"CC1(C)C=CC(=O)c2c(O)ccc(O)c21 [Compound 1, 5,8-Dihydroxy-4,4-dimethylnaphthalen-1(4H)-one]",,,3.72,,,,,,strong inhibitory effect on max. OCR,reduces the basal mitoOCR,increases ECAR,glycolysis enhancers,
"Cc1c(C)c(O)c2c(c1O)C(=O)C=CC2(C)C [Compound 4, 5,8-Dihydroxy-4,4,6,7-tetramethylnaphthalen-1(4H)-one]",,245,3.61,,,,1.05 ± 0.03,,reduced effect on max OCR,lacking effect on OCR,increases the glycolysis,glycolysis inhibitors,
"Cc1cc(O)c2c(c1O)C(=O)C=CC2(C)C [Compound 3, 5,8-Dihydroxy-4,4,7-trimethylnaphthalen-1(4H)-one]",204,> 500,3.26,,,,3.9 ± 0.1,,reduced effect on max OCR,,reduces the glycolysis,glycolysis inhibitors,

# Continued by falling IC50 [5], values first:
melting point [°C],IC50 [5] [µM],pIC50 (α-glucosidase) [5],Compound,Effect on MTT reduction [1],Effect on menadione-dependent cytosolic ROS production ([2]; DHE),Effect on menadione-induced mitochondrial ROS production [2],ORAC [3] [mol TE/mol Compound],Effect on proton leak-driven OCR [4],Effect on max OCR [4],Effect on basal mitochondrial OCR [4],Effect on glycolysis (ECAR) [4],"Effect on glycolysis, cluster in dendrogram [4]",Effect on max OCR ([4]; listed as compound 10)
,140,3.85,"Cc1cc(O)c2c(c1O)C(C)(C)C=CC2=O [Compound 2, 5,8-Dihydroxy-4,4,6-trimethylnaphthalen-1(4H)-one]",,,,5.5 ± 0.2,,reduced effect on max OCR,,reduces the glycolysis,glycolysis inhibitors,
,110,3.96,"CCC1(CC)C=CC(=O)c2c(O)cc(C)c(O)c21 [Compound 7, 4,4-Diethyl-5,8-dihydroxy-6-methylnaphthalen-1(4H)-one]",,,,7.2 ± 0.4,,strong inhibitory effect on max. OCR,lacking effect on OCR,increases the glycolysis,glycolysis enhancers,
199.9 to 201.5,103,3.98,"CC1=CC(C)(C)c2c(O)c(C)c(C)c(O)c2C1=O [Compound 5, 5,8-Dihydroxy-2,4,4,6,7-pentamethylnaphthalen-1(4H)-one]",significantly increased the MTT reduction,significantly prevented,No changes,0.37 ± 0.01,without affecting,reduced effect on max OCR; also recorded: reduces,reduces,reduces the glycolysis; also recorded: significantly reduce the glycolysis,glycolysis inhibitors,
,78,4.10,"CCC1(CC)C=C(C)C(=O)c2c(O)c(C)c(C)c(O)c21 [Compound 10, 4,4-Diethyl-5,8-dihydroxy-2,6,7-trimethylnaphthalen-1(4H)-one]",significantly increased the MTT reduction,,No changes,0.10 ± 0.01,increases,reduced effect on max OCR,,reduces the glycolysis; also recorded: significantly reduce the glycolysis,glycolysis inhibitors,decreases
198.2,60,4.20,"CCC1(CC)C=CC(=O)c2c(O)c(C)cc(O)c21 [Compound 8, 4,4-Diethyl-5,8-dihydroxy-7-methylnaphthalen-1(4H)-one]",,,,5.9 ± 0.3,,reduced effect on max OCR,,reduces the glycolysis,glycolysis inhibitors,
